For data set [1], the system named is HepG2 cells. Description: In vitro cytotoxicity, MTT assay. Format: cell-based. Conditions: HepG2, MTT, 0–1000 µg/mL, 24 h. The method, then: (§1) HepG2 cell line was obtained from the cell culture laboratory established in The University of Lahore. These cell lines were preserved in cryo vials present in liquid nitrogen. Cryo vials were revived for further processing.
(§2) The cryo vials obtained from liquid nitrogen cylinder were thawed. Then HepG2 cells were cultured in the culturing flask in which DMEM-HG along with 10% fetal bovine serum (FBS), supplemented with […] (Sigma) and 100 U/mL streptomycin (Sigma) were added. Cultures were maintained in a humidified incubator supplied with 5% CO2 at 37 °C. Experiments were performed in triplicates. When cultured HepG2 cells achieved 70–80% confluence their subculturing was conducted. For splitting, the cells attached to the walls of the culturing flask were washed with 1× phosphate buffer saline (PBS) and incubated with 0.05% trypsin-EDTA until cells detached from the surface of culturing flask. The detachment of the cells was confirmed by observing the flask under the inverted microscope. A few drops of FBS were added to the flask and mixed well by stirring. The mixture was centrifuged at 2000 rpm for 5 min. After centrifugation the supernatant was removed, and pellet was resuspended. HepG2 cells were cultured onto 96-well plates for measurement of cell viability. Treatment was given for both compounds at a concentration of 0–1000 µg/mL for 24 h.
(§3) After 4 h formazan crystals were solubilized with 10% sodium dodecylsulphate (SDS) (Invitrogen Inc.) and absorbance was taken at 570 nm. Percentage viability was calculated according to the following formula:% Viable cells = ((abs sample − abs blank) / (abs control − abs blank)) × 100 (1) where abs stands for absorbance.
For orientation: Formazan colour is commonly taken as a measure of viable cells.

The nature of data set [2]: In vitro cytotoxicity, MTT assay. Format: cell-based. Conditions: human, HepG2 cells, 24 h, control = 100, read-out: Cell Viability. As for the experimental part:
as §1, §2, §3

Data set [3] has as its target Butyrylcholinesterase (BChE) (Equus caballus, UniProt P81908). Kind of data set: biochemical. Conditions: Ellman's method, triplicate; read-out: Butyrylcholinesterse (BChE) IC50 ± SEM. The method, then: (§4) Modified Ellman’s method was adopted to investigate the inhibitory potential of newly synthesized compounds against cholinesterase enzymes. The assay protocol involved 96-well plates (100 μL per well). Each well contained 20 μL of assay buffer solution, 10 μL of test sample, and 10 μL of 0.5 U/mg of AChE (for AChE inhibition assay) or 10 μL of 3.4 U/mg of BChE (for BChE inhibition assay). This mixture was incubated at 25 °C for 10 min followed by the addition of substrate (10 μL). For AChE inhibition assay, acetylthiocholine iodide (ATCI, 1 mM) while for BChE assay, butyrylthiocholine chloride (BTCCl, 1 mM), was added. This mixture was incubated for 15 min at 37 °C. Ellman reagent (5,5′-dithio-bis(2-nitrobenzoic acid), DTNB, 3 mM) was added. […] Blank assay was also performed. All the analyses were performed in triplicate. IC50 values were also calculated for the synthesized compounds in GraphPad prism 5.0. using nonlinear regression method.

Data set [4] concerns the target Acetylcholinesterase (AChE) (Electrophorus electricus, UniProt O42275). Kind of data set: biochemical. Conditions: Ellman's method, triplicate; read-out: Acetylcholinesterase (AChE) IC50 ± SEM. As for the experimental part: as §4
In general terms: DTNB colorimetry detects thiols as they appear.

Sequence of Acetylcholinesterase (AChE) (O42275 24-633): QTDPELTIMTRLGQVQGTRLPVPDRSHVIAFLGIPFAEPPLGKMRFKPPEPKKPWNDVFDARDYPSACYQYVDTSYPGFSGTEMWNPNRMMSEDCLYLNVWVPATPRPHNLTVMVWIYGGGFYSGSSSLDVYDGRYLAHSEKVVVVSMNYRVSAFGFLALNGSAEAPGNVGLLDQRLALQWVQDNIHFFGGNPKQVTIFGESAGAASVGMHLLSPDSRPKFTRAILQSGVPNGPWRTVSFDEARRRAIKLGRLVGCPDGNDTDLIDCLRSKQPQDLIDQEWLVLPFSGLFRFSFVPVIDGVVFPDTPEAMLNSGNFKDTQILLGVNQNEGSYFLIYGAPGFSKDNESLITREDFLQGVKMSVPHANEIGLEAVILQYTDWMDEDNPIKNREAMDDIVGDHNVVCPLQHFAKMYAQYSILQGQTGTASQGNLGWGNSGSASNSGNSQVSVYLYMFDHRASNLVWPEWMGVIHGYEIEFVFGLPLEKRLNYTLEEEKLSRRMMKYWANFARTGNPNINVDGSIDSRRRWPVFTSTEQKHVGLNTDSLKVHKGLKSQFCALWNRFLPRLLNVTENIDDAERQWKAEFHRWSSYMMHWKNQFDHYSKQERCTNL
Sequence of Butyrylcholinesterase (BChE) (P81908 whole entry): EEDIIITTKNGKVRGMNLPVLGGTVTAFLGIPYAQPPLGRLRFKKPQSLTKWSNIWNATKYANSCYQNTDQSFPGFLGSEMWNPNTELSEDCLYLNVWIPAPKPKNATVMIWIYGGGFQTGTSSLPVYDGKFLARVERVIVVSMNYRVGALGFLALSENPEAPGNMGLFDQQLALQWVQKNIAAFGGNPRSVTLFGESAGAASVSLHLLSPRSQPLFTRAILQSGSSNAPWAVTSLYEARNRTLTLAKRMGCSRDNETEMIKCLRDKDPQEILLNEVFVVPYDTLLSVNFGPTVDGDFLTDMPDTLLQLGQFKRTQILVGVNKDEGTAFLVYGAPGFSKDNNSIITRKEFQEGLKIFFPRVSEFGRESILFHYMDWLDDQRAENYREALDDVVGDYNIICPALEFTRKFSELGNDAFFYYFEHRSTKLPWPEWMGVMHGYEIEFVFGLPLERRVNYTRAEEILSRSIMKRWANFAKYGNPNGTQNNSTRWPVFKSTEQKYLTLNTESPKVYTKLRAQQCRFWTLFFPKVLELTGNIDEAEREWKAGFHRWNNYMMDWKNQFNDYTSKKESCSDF

The term viability denotes a per cent measure of how many cells are alive, often set against a control. What is called IC50 is the concentration needed to halve the response being measured. As to `Cc1cccc2cc(C=NNC(=S)NCCN3CCOCC3)c(N3CCCCC3)nc12` [Compound 6m, 2-((8-Methyl-2-(piperidin-1-yl)quinolin-3-yl)methylene)-N-(2-morpholinoethyl)hydrazine carbothioamide], in data set [1], the Status entry is on record as “Cytotoxic”. The viability at 24 h, 50 μg/mL in data set [2] (HepG2, 50 μg/mL) stood at 97.9%. Also, the viability at 24 h, 100 μg/mL in data set [2] (HepG2, 100 μg/mL) was 96.8%. Moreover, the viability at 24 h, 200 μg/mL in data set [2] (HepG2, 200 μg/mL) amounted to 95.3%. Moreover, the viability at 24 h, 500 μg/mL in data set [2] (HepG2, 500 μg/mL) was determined as 97.4%. The viability at 24 h, 1000 μg/mL in data set [2] (HepG2, 1000 μg/mL) is 87.6%. For the same molecule, the IC50 in data set [3] came out at 35.1 ± 0.77 µM; in data set [4] it was 21 ± 2.3 µM.

The record behind these values is paper PMC7866225, “Microwave-Assisted Synthesis of (Piperidin-1-yl)quinolin-3-yl)methylene)hydrazinecarbothioamides as Potent Inhibitors of Cholinesterases: A Biochemical and In Silico Approach” (Molecules, 2021).
